The record followed here is patent US12616750B2, “Combination therapy utilizing DNA alkylating agents and ATR inhibitors” (Merck Patent GmbH, priority 2018, dated 2026).

Holding throughout (type): cell-based
Assay [1] has as its system NCI-N87 cells. In words: Cytotoxicity (cell viability, CellTiter-Glo, 6 d). The settings on record: Homo sapiens; NCI-N87, agent alone, 384-well format (footnote a). How it is done:
(§1) Dose-matrix combination assays were performed as described above, but performed in opague 384-well plates (2k viable cells/well). Compounds were added using Tecan D300e liquid. Protein solutions were supplemented with 0.3% Tween-20 (final) and diluted to 1 μM. All wells were normalized to the maximum amount of DMSO (maximum 0.4%) or Tween-20 added. […] Luminescence values were normalized to luminescence of non-treated cells and dose-response was fitted using Smart Fit. Synergy scores were calculated using LOEWE synergy model.

Assay [2] has as its system MDA-MB-453 cells. As to the kind of experiment: Cytotoxicity (cell viability, CellTiter-Glo, 6 d). How it is done:
as §1

Assay [3] concerns HCC-1954 cells. As to the kind of experiment: Cytotoxicity (cell viability, CellTiter-Glo, 6 d). The settings on record: Homo sapiens. Here is the method:
as §1
After 6 d of treatment, CellTiter-Glo luminescent assay was performed and the luminescence was read on Envision Reader. The results were analyzed using GeneData Screener as described before.

For assay [4], the system named is HCC-1954 cells treated with ATR, CHK1 or non-targeting siRNA. As to the kind of experiment: Cytotoxicity of duocarmycins on siRNA knock-down cells. The settings on record: 6 d. Here is the method:
0.7*10^6 viable cells were seeded in a T25 flask, 5 mL of medium were added and the cells were incubated at 37° C. and 5% C02 overnight. The transfection was carried out as follows: 2.5 μL Lipofectamine RNAiMAX were diluted with 247.5 μL OptiMEM and a 0.3 μM siRNA (ATR, CHK1 or non-targeting siRNA) solution was prepared in OptiMEM to yield 250 μL final volume. The solutions were mixed and incubated for 20 min at room temperature, followed by the addition of 500 μL cell culture medium. The cell culture medium was removed from the cells, washed with PBS (3×) and the transfection mix was added to the cells. After 4 h incubation at 37° C. and 5% CO2, the transfection mix was removed in vacuo. The cells were washed with medium (3×), 5 mL medium were added and the cells were incubated for 60 h at 37° C. and 5% CO2. Then cells were detached, and seeded into 384-well plates. Then a cytotoxicity assay was performed as described before, but with one compound only
Therefore, HCC-1954 cells were seeded into T25 flasks and left to adhere overnight. Then the cells were washed with PBS, and subsequently ATR, CHK1 and non-targeting siRNA were added. The cells were incubated for 4 h, washed with medium and incubated for 3 d. Cells were detached and seeded into 384-well plates. They were treated with duocarmycins for 6 d. Cell viability was determined via CellTiter-Glo assay kit, and data were evaluated using GraphPad Prism. The knock-down efficiency was evaluated using quantitative PCR.

Assay [5] concerns HCC-1954 cells. In words: Dose-matrix combination assay (synergy score, Loewe model). The settings on record: combination with AZD6738, HCC-1954, 6 d. How it is done: as §1
(§2) The screening of synergistic drug combinations can be accomplished by performing a dose-matrix assay. Therefore, two drugs are serial diluted and mixed at every dose level, yielding a dose-matrix. The drug combination can be additive if the effects of the combination are identical to the added effects of the single agents. However, the effects of the combination might also be stronger than the activity of the single agents. This scenario is termed synergy, whereas weaker combination effects compared to the single agents are termed antagonism. A dose-matrix assay is depicted schematically in FIG. 2 which illustrates the outcomes of a dose-matrix assay: additivity, antagonism and synergy.
(§3) The screening was conducted by serial diluting the duocarmycin derivative DUBA (10) and the DDR inhibitors. […] DUBA was combined in a dose-matrix assay with hycanthone. The cell viability was measured after 6 d of treatment using the CellTiter-Glo assay kit. The signals of the cell viability assay were normalized to untreated cells and fitted. […] By subtracting the modeled data from the fitted data, an excess matrix was generated. The excess matrix can be considered as a visualization of the differences between model and actual data which also highlights spots of either high synergy or antagonism. The quantification of the combination effects, however, was performed by calculating synergy scores. […] Besides synergy score, the potency of the drugs in monotherapy was obtained from these experiments. […] The potency was obtained from this dose-response curve.
(§4) The scattering of S was determined in a sham control experiment to define a cutoff for classifying a combination as truly synergistic or antagonistic. Thus seven different compounds were combined with itself on four different cell lines and the three-σ confidence interval was calculated around the mean of the measurement. […] For the sake of convenience, the cutoff was set to a value of ±1.
(§5) Synergy scores (S) were obtained from the combination experiments that indicated additivity […] if model and actual response were equal. […] The magnitude of the score determined the extent of the combination effects.

For the next assay, the system named is JIMT-1 cells. In words: Cytotoxicity (cell viability, CellTiter-Glo, 6 d). Particulars: JIMT-1, agent alone, 384-well format (footnote a). Here is the method: Evaluation was performed using GraphPad Prism version 6.05.
(§6) Dose-matrix combination assays were performed as described above, but performed in opague 384-well plates (2k viable cells/well). Compounds were added using Tecan D300e liquid. Protein solutions were supplemented with 0.3% Tween-20 (final) and diluted to 1 μM. All wells were normalized to the maximum amount of DMSO (maximum 0.4%) or Tween-20 added. Read out of luminescence was performed on Envision 2104 Multilabel Reader (Perkin Elmer) and data were evaluated using Genedata Screener® version 14.0.6-Standard (Genedata AG). Luminescence values were normalized to luminescence of non-treated cells and dose-response was fitted using Smart Fit. Synergy scores were calculated using LOEWE synergy model.

Assay [6] deals with NCI-N87 cells. As to the kind of experiment: Dose-matrix combination assay (synergy score, Loewe model). The settings on record: combination with AZD6738; NCI-N87. Here is the method: as §6, §2
Assay [7] relates to MDA-MB-453 cells. Described as above. The settings on record: combination with AZD6738; MDA-MB-453. Here is the method: as §6, §2
Assay [8] has as its system MDA-MB-468 cells. In words: Cytotoxicity (cell viability, CellTiter-Glo, 6 d).
Assay [9] has as its system MDA-MB-468 cells. In words: Dose-matrix combination assay (synergy score, Loewe model). Particulars: combination with AZD6738; MDA-MB-468 (EGFR-positive), 6 d. How it is done: as §1, §2, §3, §4, §5
For another assay, the system named is MCF7 cells. In words: Cytotoxicity (cell viability). Particulars: MCF7 (EGFR −, MET −), Table 10. How it is done: (§7) Curve-shift assays were conducted as follows: The cell number and viability was determined using ViCell™-XR (Beckman Coulter) and seeded in opague 96-well plate (10k viable cells/well). After seeding, the plate was incubated (37° C., 5% C02) in a humid chamber overnight. Compounds were diluted in the appropriate medium, added to the cells and the plate was incubated (37° C., 5% CO2, 6 d) in a humid chamber. After 30 min equilibration at room temperature, CellTiter-Glo reagent (Promega) was added. After the plate was shaken (3 min, 550 rpm, rt) it was incubated (10 min, rt) and luminescence was read on a synergy 4 plate reader (BioTek). Evaluation was performed using GraphPad Prism version 6.05. Therefor luminescence values were normalized to luminescence values of non-treated cells and dose-response was fitted with 4-point logistic fit.
as §6

The subject of the next assay is A431 cells. In words: Cytotoxicity (cell viability). Particulars: A431 (EGFR ++, MET +), Table 10. Here is the method: as §7, §6
The subject of assay [10] is A549 cells. As to the kind of experiment: Cytotoxicity (cell viability). Particulars: A549 (EGFR +, MET +), Table 10. How it is done: as §7, §6
The subject of assay [11] is A549 cells. In words: Dose-matrix combination assay (synergy score, Loewe model). The settings on record: combination with AZD6738; A549 (EGFR-positive), 6 d. How it is done:
as §6, §2

Read-outs that look alike come from different tables or passages of the source.

As for `Cc1cccc2c(O)cc3c(c12)[C@H](CCl)CN3C(=O)c1cn2cc(NC(=O)c3ccc(O)cc3)ccc2n1` [compound 10], the IC50 was 1.2 ± 0.5 nM in the assay on NCI-N87 cells [1]; 0.3 ± 0.1 nM with MDA-MB-453 cells [2] (Homo sapiens, MDA-MB-453); 0.3 ± 0.07 nM in the assay on HCC-1954 cells [3] (HCC1954, HCC-1954, agent alone, 384-well format (footnote a)); 0.2 ± 0.1 nM in the assay on HCC-1954 cells [3] (HCC1954, duocarmycin variant alone, HCC-1954, mean ± SD or mean (individual values)); 0.25 nM in [4] (Homo sapiens, HCC1954, 144 h, ATR knock-down HCC-1954 cells); 3 ± 2 nM in the assay with JIMT-1 cells (Homo sapiens). In the assay on MDA-MB-468 cells [8] (Homo sapiens, MDA-MB-468), this molecule displayed an IC50 of 0.06 ± 0.02 nM. For the same molecule, the “Synergy score S” value with HCC-1954 cells [5] was 6.7 (6.3, 7.2) 6.9 ± 0.7; in the assay with HCC-1954 cells [5] (listed as DUBA), 6.9±0.7; in the assay with HCC-1954 cells [5] (listed as DUBA (10)) it was 6.9±0.7; with NCI-N87 cells [6], 3.1+0.6; in the assay with MDA-MB-453 cells [7] it was 5.0±0.5.
As to `CN(C)CCOc1ccc2[nH]c(C(=O)N3C[C@@H](CCl)c4c3cc(O)c3ccccc43)cc2c1` [compound 38], the IC50 in the assay with MDA-MB-453 cells [2] (MDA-MB-453, agent alone, 384-well format (footnote a), read-out: IC50) was found to be 0.14 nM; in assay [4] (ATR knock-down HCC-1954 cells), 0.014 nM; in assay [4] (CHK1 knock-down HCC-1954 cells) it was 0.133 nM; in the assay with JIMT-1 cells, 0.14 nM; in the assay on MCF7 cells, 0.164 ± 0.004 nM; with A431 cells, 0.055 ± 0.005 nM. In addition, the IC50 in the assay with A549 cells [10] worked out at 0.1 ± 0.1 nM; in the assay on MDA-MB-468 cells [8] (MDA-MB-468 (EGFR +++, MET +), Table 10, read-out: IC50) it was 0.02 ± 0.01 nM; in the assay on MDA-MB-468 cells [8] (MDA-MB-468, agent alone, 384-well format (footnote a), read-out: IC50) it was 0.02 ± 0.01 nM. For the same molecule, the “Synergy score S” value with MDA-MB-468 cells [9] is recorded as 6.0±1.0; in the assay with HCC-1954 cells [5], 5.6 ± 1.7 5.1 (4.8, 5.3); in the assay with HCC-1954 cells [5] (listed as DDM), 5.6+1.7; with HCC-1954 cells [5] (listed as DDM (38)), 5.6±1.7; in the assay with A549 cells [11], 2.0±1.1.
